Assay results as given in PMC7764606 (Cancers, 2020).
Like-named read-outs stand apart in the source and are kept apart here. Blank lines part the entries; values can stand above or below the compound they belong to.

Tests used:
[1] = biological target: T1, recombinant AKR1C3 (Homo sapiens, UniProt P42330); experiment: Reduction of Dau by recombinant AKR1C3 (UHPLC detection of Dau-ol); format: biochemical; conditions: for reduction of AKR1C3 activity (Dau reduction): Dau 500 µM, relative to DMSO; for Ki: read-out: Ki^app (Morrison equation for tight-binding inhibitors)
T1 construct: made in house; host or cells: Escherichia coli
T1 sequence (P42330 1-323): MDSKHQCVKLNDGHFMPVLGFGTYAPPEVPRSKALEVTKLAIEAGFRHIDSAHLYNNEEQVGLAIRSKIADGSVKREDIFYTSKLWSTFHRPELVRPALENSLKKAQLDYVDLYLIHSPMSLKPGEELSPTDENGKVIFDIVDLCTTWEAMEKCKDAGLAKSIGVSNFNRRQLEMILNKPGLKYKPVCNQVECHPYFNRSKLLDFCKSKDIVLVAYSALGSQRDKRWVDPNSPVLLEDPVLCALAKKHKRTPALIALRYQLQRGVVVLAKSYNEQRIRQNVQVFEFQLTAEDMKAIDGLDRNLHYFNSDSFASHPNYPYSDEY
Procedure: (§1) Human recombinant CREs (CBR1, AKR1A1, 1B1, 1B10, 7A2, and 1C3) were produced by an Escherichia coli expression system as per methods described previously. For the inhibitory assay, each recombinant enzyme, CBR1 (1 µg), AKR1A1 (1 µg), AKR1B1 (5 µg), AKR1B10 (5 µg), AKR7A2 (3 µg), or AKR1C3 (1.5 µg) was incubated with BTK inhibitors at different concentrations (10 and 50 µM) and the substrate Dau (500 µM). For analysis using the Lineweaver-Burk plot, 1.5 µg of recombinant AKR1C3 was incubated with DMSO or BTK inhibitors (1, 5, and 10 µM) and Dau (200, 400, 600, 800, 1000, and 2000 µM). […] The incubations and further metabolite detection were further performed by using ultra-high-performance liquid chromatography (UHPLC) as per methods described previously.

[2] = single oral dose of 140 mg; cited from earlier work
[3] = tested on: A549 cells; experiment: MTT cell viability, A549 cells (incl. Chou-Talalay analysis); format: cell-based, human
Procedure: (§2) Twenty-four hours prior to the experiment, transfected HCT116 cells (8 × 10^3 cells/well) or A549 cells (5 × 10^3 cells/well) were seeded in 96-well plates. The cell culture medium was replaced with fresh medium containing increasing amounts of Dau (final concentrations: 0.01, 0.05, 0.1, 0.25, 0.5, 0.75, 1, and 10 µM) with or without BTK inhibitors (final concentrations: 1, 5, and 10 µM). After 72 h of incubation under standard conditions (37 °C, 5% CO2), cell viability was assessed by MTT (Sigma-Aldrich, Prague, Czech Republic) assay. For this, 50 µL of the MTT solution (3 mg/mL) was added to each well and incubated for 30 min. The supernatant was collected, and the cell monolayers were dissolved in 100 µL of DMSO. The absorbance was measured at 570 and 690 nm by a microplate reader Infinite M200 (Tecan, Salzburg, Austria), and the background values at 690 nm were subtracted from the absorbance obtained at 570 nm. The half-maximal inhibitory concentrations (IC50) were calculated using GraphPad Prism 8.1.2. The drug combination pharmacodynamics were determined by the Chou-Talalay method using the CompuSyn ver. 3.0.1 software (ComboSyn Inc., Paramus, NJ, USA).

[4] = tested on: AKR1C3 expression in A549 cells; experiment: AKR1C3 protein levels in A549 cells by western blotting; format: cell-based, human; conditions: 1, 5 and 10 µM, 72 h, western blot relative to β-actin
Procedure: A549 cells were incubated with DMSO or BTK inhibitors (1, 5, and 10 µM) for 72 h, and then total protein was extracted for analysis of AKR1C3 expression by western blotting (WB) as per methods described previously. A representative WB is shown for IBR (A) and ACA (B) incubations, and bars represent AKR1C3 protein levels as determined by densitometry relative to β-actin (n = 3, mean ± SD). Uncropped images from WB are available in Figure S1 in the Supplementary Materials. On the other hand, HCT116-EV and HCT116-C3 cells were treated with increasing concentrations of IBR (C) and ACA (D) for 72 h, and their viability was assessed by MTT assay. Graphs represent a comparison of the dose-response curves for percentages of cell viability in each cell line (n = 6, mean ± SD).

[5] = tested on: HCT116-EV cells; experiment: MTT cell viability, HCT116-EV cells (incl. Chou-Talalay analysis); format: cell-based, human
Procedure: (§3) HCT116 cells were seeded (1.25 × 10^5 cells/well) in 24-well plates and cultured for 24 h. For the transient expression of the recombinant human AKR1C3, the cells were transfected with a pCI_AKR1C3 or empty pCI plasmid as control (previously described in a study by Hofman et al.) according to the manufacturer’s instructions (jetPRIME® Transfection Reagent; Polyplus Transfection®, Illkirch, France). For each 24-well plate, a mixture of 0.75 µL of the jetPRIME® Transfection Reagent and 0.25 µg of plasmid was incubated for 10 min at room temperature. Then, polyplexes were added to the HCT116 cells with 0.5 mL of fresh DMEM supplemented with 10% FBS and incubated for 24 h (37 °C, 5% CO2). The expression of recombinant AKR1C3 was verified by western blotting as per methods described previously.
as §2

[6] = tested on: T2, AKR1C3 in HCT116-C3 cells; experiment: Dau metabolism to Dau-ol in HCT116 cells transiently overexpressing AKR1C3; format: cell-based, human; conditions: 5 h
T2 construct: expressed in transfected cells; host or cells: HCT116
Procedure: as §3
After transfection of HCT116 cells or seeding of A549 cells (25 × 10^3 cells/well) in 24-well plates for 24 h, the medium was harvested and replaced with DMEM supplemented with 10% FBS containing 1 µM daunorubicin, with or without increasing concentrations (1, 5, and 10 μM) of BTK inhibitors. Cells were incubated (37 °C, 5% CO2) for 2.5 and 5 h (transfected HCT116) or only 5 h (A549). Then, the medium was collected and the cells were lysed in lysis buffer (25 mM Tris, 150 mM NaCl, and 1% Triton X-100, pH 7.8) for 15 min at room temperature. The collected medium was combined with cell lysate for further extraction and analysis of metabolites, as per methods described previously.

[7] = tested on: T3, recombinant AKR1B10; experiment: Reduction of Dau by recombinant AKR1B10 (UHPLC detection of Dau-ol); format: biochemical, Human; conditions: Dau 500 µM, relative to DMSO
T3 construct: made in house; host or cells: Escherichia coli
Procedure: as §1

[8] = BTK-inhibitor 5 µM + Dau 0.25 µM
[9] = BTK-inhibitor 5 µM + Dau 0.50 µM

Km ([1]; substrate Dau, recombinant AKR1C3, read-out: Km used in the Morrison equation): 387 ± 36 µM
SMILES: COc1cccc2c1C(=O)c1c(O)c3c(c(O)c1C2=O)C[C@@](O)(C(C)=O)C[C@@H]3O[C@H]1C[C@H](N)[C@H](O)[C@H](C)O1 [Dau, daunorubicin]

IC50 ([5]; Homo sapiens, 72 h MTT, read-out: IC50 of BTK inhibitor alone (cell viability)): 17000 nM | reduction of AKR1C3 activity (Dau reduction) ([1]; 10 µM BTK inhibitor): 92.17% ± 3.43% | reduction of AKR1C3 activity (Dau reduction) ([1]; 50 µM BTK inhibitor): 96.41% ± 1.48% | Ki ([1]; AKR1C3 0.005 mg/mL (0.135 μM)): 312 nM | Ki ([1]; AKR1C3 0.015 mg/mL (0.405 μM)): 332 nM | Ki ([1]; AKR1C3 0.030 mg/mL (0.811 μM)): 354 nM | mode of inhibition (Lineweaver-Burk plot) ([1]; recombinant AKR1C3 with increasing Dau): non-competitive/mixed
SMILES: C=CC(=O)N1CCC[C@@H](n2nc(-c3ccc(Oc4ccccc4)cc3)c3c(N)ncnc32)C1 [Ibrutinib, ibrutinib]
mean Cmax [2]: 37.1 ng/mL | Fraction affected (Fa %) ([3]; BTK-inhibitor 1 µM + Dau 0.01 µM): 21.92 ± 2.37% | Fraction affected (Fa %) ([3]; BTK-inhibitor 1 µM + Dau 0.25 µM): 43.16 ± 2.59% | Fraction affected (Fa %) ([3]; BTK-inhibitor 1 µM + Dau 0.50 µM): 71.16 ± 6.46% | Fraction affected (Fa %) ([3]; BTK-inhibitor 1 µM + Dau 0.75 µM): 86.63 ± 0.72% | Fraction affected (Fa %) ([3]; BTK-inhibitor 1 µM + Dau 1.00 µM): 91.12 ± 0.72% | Fraction affected (Fa %) ([3]; BTK-inhibitor 5 µM + Dau 0.01 µM): 33.76 ± 1.79% | Fraction affected (Fa %) [3, 8]: 54.13 ± 5.98% | Fraction affected (Fa %) [3, 9]: 85.67 ± 2.02% | Fraction affected (Fa %) ([3]; BTK-inhibitor 5 µM + Dau 0.75 µM): 91.76 ± 0.78% | Fraction affected (Fa %) ([3]; BTK-inhibitor 5 µM + Dau 1.00 µM): 94.00 ± 0.28% | effect on expression (protein levels) of AKR1C3 [4]: negligible or absence of effects | Fraction affected (Fa %) [5, 8]: 58.13 ± 12.2% | Fraction affected (Fa %) [5, 9]: 77.56 ± 6.90% | Fraction affected (Fa %) ([5]; BTK-inhibitor 10 µM + Dau 0.25 µM): 58.56 ± 7.79% | Fraction affected (Fa %) ([5]; BTK-inhibitor 10 µM + Dau 0.50 µM): 81.92 ± 4.25% | decrease in AKR1C3 activity (Dau to Dau-ol) ([6]; 1 µM BTK inhibitor + 1 µM Dau): 29.40% ± 11.55% | decrease in AKR1C3 activity (Dau to Dau-ol) ([6]; 5 µM BTK inhibitor + 1 µM Dau): 45.16% ± 0.86% | decrease in AKR1C3 activity (Dau to Dau-ol) ([6]; 10 µM BTK inhibitor + 1 µM Dau): 60.72% ± 6% | inhibition of AKR1B10 activity (Dau reduction) ([7]; 10 µM BTK inhibitor): 48.18% ± 2.10% | inhibition of AKR1B10 activity (Dau reduction) ([7]; 50 µM BTK inhibitor): 74.97% ± 0.87%
